# Measurements from PMC12775819, “Optimizing PSMA-617-based inhibitors through charged linker modifications: Insights into structure-activity relationships” (Theranostics, 2026).
# Non-standard residues stand in square brackets, D forms with d. Residues, ends and D or L forms follow the SMILES beside them. *: point of attachment. DOTA = O=C(O)CN1CCN(CC(=O)O)CCN(CC(=O)*)CCN(CC(=O)O)CC1; EuK = O=C(O)CC[C@H](NC(=O)N[C@@H](CCCCN*)C(=O)O)C(=O)O; 2Nal = N[C@@H](Cc1ccc2ccccc2c1)C(=O)O; Trx = NC[C@H]1CC[C@H](C(=O)O)CC1
# Assays:
# in vivo [1] = details: male, BALB/c nu/nu, mouse, iv, 500 pmol, total radioactivity
# in vivo [2] = details: male, BALB/c nu/nu, mouse, iv, 500 pmol, total radioactivity; remark: listed apart in the source
# [3] = system: PSMA-positive LNCaP cells; test: Surface binding and internalization of 68Ga-labeled compounds; type: cell-based, human; details: for Internalization Block / Surface Binding Block / Internalization / Surface Binding: 30 nM, 45 min, 37 °C; for Internalization Block / Surface Binding Block: blocked with 2-PMPA 500 µM; for Internalization / Surface Binding: unblocked; for Specific Internalization / Specific Surface Binding: difference of unblocked and blocked values
# Experimental: (§1) The PSMA-positive human cell line LNCaP (human lymph node carcinoma of the prostate; ATCC CRL-1740) was cultivated adherently at 37 °C and humidified 5% CO2 with RPMI-1640 (Thermo Fisher Scientific, Germany) supplemented with 10% fetal bovine serum (Sigma-Aldrich, Germany), 1% sodium pyruvate (Life Technologies, Germany) and 1% penicillin/[…] (Thermo Fisher Scientific, Germany). A mixture of trypsin/ethylenediaminetetraacetic acid (0.05% / 0.02%; Thermo Fisher Scientific, Germany) was used for cell harvesting (last authentication: April 2024).
# Internalization assays were performed on poly-L-lysine coated 24-well cell culture plates. The day before the experiment, LNCaP cells (10^5 cells/well) were harvested and seeded to the wells. The cells were incubated with the ^68Ga-labeled compounds (250 µl, 30 nM, diluted in RPMI medium) for 45 min at 37 °C. […] The medium was then removed and the cells washed with ice-cold PBS buffer (3 × 1 ml). To remove surface bound compounds, ice-cold glycine buffer (2 × 0.5 ml, 50 mM, pH 2.8) was added to the wells and collected after 5 min in a combined fraction. After washing once with PBS (1 ml), NaOH (0.5 ml, 0.3 M) was added to the cells for lysation. Collected surface-bound, internalized fractions and standards from the stock solutions (25 µl) were measured in a γ-counter. Data was normalized and presented as percentage of the initially added radioactivity bound to 10^5 cells [%IA/10^5 cells].
# [4] = Partition coefficient (logD), n-octanol/PBS pH 7.4; type: physicochemical; details: 68Ga-labeled compounds, mean ± SD; for logD: read-out: Partition Coefficient [logDoctanol/PBS]
# Experimental: To determine the lipophilicity expressed as distribution coefficient (logD), a two-phase system of n-octanol (500 µl) and phosphate buffered saline (PBS) (490 µl) at pH 7.4 was used (n = 4). Compounds were radiolabeled with [^68Ga]Ga^3+ and the mixture diluted to a concentration of 0.25 µM in PBS. 10 µl of the 0.25 µM dilution were added to the n-octanol / PBS mixture. After extensive mixing, the 2-phase system was centrifuged for 10 min at 14,000 rpm and 4 °C. Two samples from each phase (100 µl) were taken and measured in a γ-gamma counter (PerkinElmer, Waltham, USA). […] The data is presented as the mean value with the standard deviation (SD).
# [5] = system: LNCaP xenograft-bearing BALB/c nu/nu mice; test: Static small-animal PET imaging 1 h and 2 h p.i.; details: 68Ga-labeled, 0.5 nmol i.v., n = 1, SD from VOIs
# PSMA = target: T1, PSMA (Homo sapiens, UniProt Q04609); test: Competitive cell binding (IC50) against [68Ga]Ga-PSMA-10 on LNCaP cells; details: unlabeled precursors vs [68Ga]Ga-PSMA-10 (0.8 nM), 45 min, room temperature, ± SD
# T1 construct: incubated with [^68Ga]Ga-PSMA-10 (0.8 nM) and LNCaP cells (10^5 cells/well) for 45 min at room temperature; host or cells: LNCaP (human prostate carcinoma lymph node metastasis)
# Experimental: as §1
# To determine the binding affinity of the investigated compounds, competitive cell binding studies were performed with ^68Ga-labeled PSMA-10. Dilution series of twelve concentrations in medium were prepared from the precursor peptides PS1 - PS11 including concentrations of 0, 0.5, 1, 2.5, 5, 10, 25, 50, 100, 500, 1,000, and 5,000 nM. The assay was performed on 96-well filter plates (Merck, Darmstadt, Germany). Medium (100 µl per well) was added before the experiment and incubated for 1 h at room temperature to block non-specific binding. The medium was removed and the diluted compounds were incubated with [^68Ga]Ga-PSMA-10 (0.8 nM) and LNCaP cells (10^5 cells/well) for 45 min at room temperature (total volume 100 µl/well). Cells were washed with PBS buffer (2× 100 µl, 1× 200 µl) over a MultiScreen 96-well vacuum filtration system (Merck Millipore, Billerica, USA). The filters containing the retained cells were punched out and the radioactivity was quantified using a γ-counter. By applying a non-linear regression algorithm (GraphPad Prism 8.0.1., Boston, USA), the specific inhibitory concentration of 50% (IC50) could be determined. The experiment was repeated at least three times per compound and the data presented as IC50 ± standard deviation.
# in vitro = in vitro ADME; details: mouse, serum
# Experimental: Incubation in human and murine serum (BioIVT, United Kingdom) was used to determine the stability of the described precursors. First, the substances were labeled with [^177Lu]Lu^3+ and added to 100 µl of pre-warmed serum (0.5 nmol, 3 - 10 MBq). The reaction mixture was incubated at 37 °C and 10 µl samples were taken at regular intervals (0, 6, 24, 48, 72 h). After precipitation of the proteins by the addition of 30 µl of acetonitrile, the probes were centrifuged for 2 min at 14,000 rpm and the stability determined by analytical radio-HPLC of the […].
# [6] = Static small-animal PET imaging 1 h and 2 h p.i.; details: male, BALB/c nu/nu, mouse, tumor (LNCaP xenograft), iv, 500 pmol, total radioactivity, SUV tumor, 68Ga-labeled, 0.5 nmol i.v., n = 1, SD from VOIs
# T1 sequence (Q04609 whole entry): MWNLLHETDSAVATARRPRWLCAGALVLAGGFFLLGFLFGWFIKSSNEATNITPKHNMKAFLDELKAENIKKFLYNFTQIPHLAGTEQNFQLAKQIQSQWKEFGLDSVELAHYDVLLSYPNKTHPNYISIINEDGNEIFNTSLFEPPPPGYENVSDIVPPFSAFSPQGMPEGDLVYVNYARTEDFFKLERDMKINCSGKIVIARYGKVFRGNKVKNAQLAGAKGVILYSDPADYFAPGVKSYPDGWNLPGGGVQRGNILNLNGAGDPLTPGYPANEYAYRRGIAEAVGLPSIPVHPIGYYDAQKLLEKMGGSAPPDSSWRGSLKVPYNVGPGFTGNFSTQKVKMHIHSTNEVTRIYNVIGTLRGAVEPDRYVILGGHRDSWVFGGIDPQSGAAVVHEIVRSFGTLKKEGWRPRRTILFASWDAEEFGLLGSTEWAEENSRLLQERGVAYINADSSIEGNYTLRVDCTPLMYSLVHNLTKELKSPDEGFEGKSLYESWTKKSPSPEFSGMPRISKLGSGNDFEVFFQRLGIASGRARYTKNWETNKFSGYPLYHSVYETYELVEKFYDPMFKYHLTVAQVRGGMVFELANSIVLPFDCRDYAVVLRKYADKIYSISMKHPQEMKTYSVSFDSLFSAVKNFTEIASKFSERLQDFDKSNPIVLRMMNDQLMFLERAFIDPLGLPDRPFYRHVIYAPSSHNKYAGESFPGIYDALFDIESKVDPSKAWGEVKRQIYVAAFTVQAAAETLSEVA
compound,measurement,setting,value
"O=C(O)CC[C@H](NC(=O)N[C@@H](CCCCNC(=O)[C@H](Cc1ccc2ccccc2c1)NC(=O)[C@H]1CC[C@H](CNC(=O)[C@H](CCC(=O)O)NC(=O)[C@H](CCC(=O)O)NC(=O)[C@H](CCC(=O)O)NC(=O)CN2CCN(CC(=O)O)CCN(CC(=O)O)CCN(CC(=O)O)CC2)CC1)C(=O)O)C(=O)O [[^68Ga]Ga-PS8, metal not drawn] ({DOTA}-EEE[Trx][2Nal]-EuK)",tissue to tissue ratio at 1 h,in vivo [1],16.2 ± 0.27
same,SUV at 1 h,in vivo [2],1.17 SUV
"O=C(O)CC[C@H](NC(=O)N[C@@H](CCCCNC(=O)[C@H](Cc1ccc2ccccc2c1)NC(=O)[C@H]1CC[C@H](CNC(=O)CN2CCN(CC(=O)O)CCN(CC(=O)O)CCN(CC(=O)O)CC2)CC1)C(=O)O)C(=O)O [PSMA-617, EuK-NaI-ChX-DOTA]",Internalization Block,[3],0.210 ± 0.036 %Binding / %Internalization
same,Surface Binding Block,[3],0.062 ± 0.013 %Binding / %Internalization
same,Internalization,[3],0.50 ± 0.05 %Binding / %Internalization
same,Surface Binding,[3],0.79 ± 0.13 %Binding / %Internalization
same,Specific Internalization,[3],0.28 ± 0.27 %Binding / %Internalization
same,Specific Surface Binding,[3],0.72 ± 0.38 %Binding / %Internalization
same,Partition Coefficient [logDoctanol/PBS],[4],-2.7 ± 0.2
same,SUV kidneys,[5]; static PET 1 h p.i.,1.25 ± 0.14 g/mL
same,SUV muscle,[5]; static PET 1 h p.i.,0.073 ± 0.004 g/mL
same,SUV tumor,[5]; static PET 1 h p.i.,0.63 ± 0.02 g/mL
same,SUV kidneys,[5]; static PET 2 h p.i.,0.28 ± 0.06 g/mL
same,SUV muscle,[5]; static PET 2 h p.i.,0.02 ± 0.01 g/mL
same,SUV tumor,[5]; static PET 2 h p.i.,0.52 ± 0.16 g/mL
same,IC50,PSMA,21.8 ± 3.13 nM
"O=C(O)CC[C@H](NC(=O)N[C@@H](CCCCNC(=O)[C@H](Cc1ccc2ccccc2c1)NC(=O)[C@H]1CC[C@H](CNC(=O)[C@H](Cc2c[nH]cn2)NC(=O)[C@H](CCC(=O)O)NC(=O)[C@H](Cc2c[nH]cn2)NC(=O)[C@H](CCC(=O)O)NC(=O)[C@H](Cc2c[nH]cn2)NC(=O)[C@H](CCC(=O)O)NC(=O)CN2CCN(CC(=O)O)CCN(CC(=O)O)CCN(CC(=O)O)CC2)CC1)C(=O)O)C(=O)O [PS3, EuK-NaI-ChX-(HE)3-DOTA] ({DOTA}-EHEHEH[Trx][2Nal]-EuK)",SUV at 1 h,in vivo [1]; SUV kidneys,3.05 ± 0.01 SUV
same,SUV at 2 h,in vivo [1]; SUV kidneys,1.56 ± 0.13 SUV
same,SUV at 1 h,in vivo [1]; SUV muscle,0.13 ± 0.03 SUV
same,SUV at 2 h,in vivo [1]; SUV muscle,0.1 ± 0.01 SUV
same,SUV at 1 h,in vivo [1]; SUV tumor,0.93 ± 0.08 SUV
same,SUV at 2 h,in vivo [1]; SUV tumor,0.92 ± 0.06 SUV
same,Internalization Block,[3],0.112 ± 0.022 %Binding / %Internalization
same,Surface Binding Block,[3],0.069 ± 0.129 %Binding / %Internalization
same,Internalization,[3],0.67 ± 0.14 %Binding / %Internalization
same,Surface Binding,[3],1.32 ± 0.11 %Binding / %Internalization
same,Specific Internalization,[3],0.56 ± 0.42 %Binding / %Internalization
same,Specific Surface Binding,[3],1.26 ± 1.97 %Binding / %Internalization
same,logD,[4],-3.6 ± 0.3
same,IC50,PSMA,37 ± 11.4 nM
"O=C(O)CC[C@H](NC(=O)N[C@@H](CCCCNC(=O)[C@H](Cc1ccc2ccccc2c1)NC(=O)[C@H]1CC[C@H](CNC(=O)[C@H](Cc2c[nH]cn2)NC(=O)[C@H](Cc2c[nH]cn2)NC(=O)[C@H](Cc2c[nH]cn2)NC(=O)CN2CCN(CC(=O)O)CCN(CC(=O)O)CCN(CC(=O)O)CC2)CC1)C(=O)O)C(=O)O [[^68Ga]Ga-PS11, metal not drawn] ({DOTA}-HHH[Trx][2Nal]-EuK)",tissue to tissue ratio at 1 h,in vivo [1],0.66 ± 0.15
same,tissue to tissue ratio at 2 h,in vivo [1],1.15 ± 0.27
same,tissue to tissue ratio at 1 h,in vivo [2],0.633
"O=C(O)CC[C@H](NC(=O)N[C@@H](CCCCNC(=O)[C@H](Cc1ccc2ccccc2c1)NC(=O)[C@H](Cc1c[nH]cn1)NC(=O)[C@H](Cc1c[nH]cn1)NC(=O)[C@H](Cc1c[nH]cn1)NC(=O)[C@H]1CC[C@H](CNC(=O)CN2CCN(CC(=O)O)CCN(CC(=O)O)CCN(CC(=O)O)CC2)CC1)C(=O)O)C(=O)O [[^177Lu]Lu-PS10, metal not drawn] ({DOTA-Trx}-HHH[2Nal]-EuK)","remaining at 48 h, 5 µM",in vitro,64%
"O=C(O)CC[C@H](NC(=O)N[C@@H](CCCCNC(=O)[C@H](Cc1c[nH]cn1)NC(=O)[C@H](CCC(=O)O)NC(=O)[C@H](Cc1c[nH]cn1)NC(=O)[C@H](CCC(=O)O)NC(=O)[C@H](Cc1c[nH]cn1)NC(=O)[C@H](CCC(=O)O)NC(=O)[C@H](Cc1ccc2ccccc2c1)NC(=O)[C@H]1CC[C@H](CNC(=O)CN2CCN(CC(=O)O)CCN(CC(=O)O)CCN(CC(=O)O)CC2)CC1)C(=O)O)C(=O)O [[^68Ga]Ga-PS1, metal not drawn] ({DOTA-Trx}-[2Nal]EHEHEH-EuK)",SUV at 1 h,[6]; static PET 1 h p.i.,0.43 ± 0.06 SUV
same,SUV at 2 h,[6]; static PET 2 h p.i.,0.3 ± 0.11 SUV
"O=C(O)CC[C@H](NC(=O)N[C@@H](CCCCNC(=O)[C@H](Cc1c[nH]cn1)NC(=O)[C@H](Cc1c[nH]cn1)NC(=O)[C@H](Cc1c[nH]cn1)NC(=O)[C@H](Cc1ccc2ccccc2c1)NC(=O)[C@H]1CC[C@H](CNC(=O)CN2CCN(CC(=O)O)CCN(CC(=O)O)CCN(CC(=O)O)CC2)CC1)C(=O)O)C(=O)O [[^177Lu]Lu-PS9, metal not drawn] ({DOTA-Trx}-[2Nal]HHH-EuK)","metabolised at 24 h, 5 µM",in vitro,~40%
"O=C(O)CC[C@H](NC(=O)N[C@@H](CCCCNC(=O)[C@H](Cc1ccc2ccccc2c1)NC(=O)[C@H]1CC[C@H](CNC(=O)[C@H](Cc2c[nH]cn2)NC(=O)[C@H](CCC(=O)O)NC(=O)[C@H](Cc2c[nH]cn2)NC(=O)[C@H](CCC(=O)O)NC(=O)[C@H](Cc2c[nH]cn2)NC(=O)[C@H](CCC(=O)O)NC(=O)[C@H](Cc2c[nH]cn2)NC(=O)[C@H](CCC(=O)O)NC(=O)CN2CCN(CC(=O)O)CCN(CC(=O)O)CCN(CC(=O)O)CC2)CC1)C(=O)O)C(=O)O [PS5, EuK-NaI-ChX-(HE)4-DOTA] ({DOTA}-EHEHEHEH[Trx][2Nal]-EuK)",SUV at 1 h,in vivo [1]; SUV kidneys,3.13 ± 0.16 SUV
same,SUV at 2 h,in vivo [1]; SUV kidneys,2.37 ± 0.27 SUV
same,SUV at 1 h,in vivo [1]; SUV muscle,0.12 ± 0.02 SUV
same,SUV at 2 h,in vivo [1]; SUV muscle,0.09 ± 0.02 SUV
same,SUV at 1 h,in vivo [1]; SUV tumor,0.86 ± 0.06 SUV
same,SUV at 2 h,in vivo [1]; SUV tumor,0.94 ± 0.07 SUV
same,Internalization Block,[3],0.155 ± 0.022 %Binding / %Internalization
same,Surface Binding Block,[3],0.082 ± 0.029 %Binding / %Internalization
same,Internalization,[3],0.67 ± 0.06 %Binding / %Internalization
same,Surface Binding,[3],1.41 ± 0.10 %Binding / %Internalization
same,Specific Internalization,[3],0.51 ± 0.25 %Binding / %Internalization
same,Specific Surface Binding,[3],1.33 ± 0.42 %Binding / %Internalization
same,logD,[4],-3.74 ± 0.05
same,IC50,PSMA,46.7 ± 37.3 nM
